According to US11484032B2, “Compositions for inhibition of insect sensing” (Vanderbilt University, priority 2011, dated 2022):
Read-outs that look alike come from different tables or passages of the source.

Columns and labels:
Orco (AgORco) = target: T1, Orco (AgORco) (Anopheles gambiae, UniProt Q7QCC7); experiment: Fluo-4 Ca2+ imaging, HEK293 cells expressing Orco alone; format: cell-based; settings: for EC50: Orco alone, read-out: Orco Agonist EC50; for Emax: HEK293, read-out: Orco Agonist % value Of VUAA1
T1 construct: expressed in transfected cells
T1 sequence (Q7QCC7 1-478): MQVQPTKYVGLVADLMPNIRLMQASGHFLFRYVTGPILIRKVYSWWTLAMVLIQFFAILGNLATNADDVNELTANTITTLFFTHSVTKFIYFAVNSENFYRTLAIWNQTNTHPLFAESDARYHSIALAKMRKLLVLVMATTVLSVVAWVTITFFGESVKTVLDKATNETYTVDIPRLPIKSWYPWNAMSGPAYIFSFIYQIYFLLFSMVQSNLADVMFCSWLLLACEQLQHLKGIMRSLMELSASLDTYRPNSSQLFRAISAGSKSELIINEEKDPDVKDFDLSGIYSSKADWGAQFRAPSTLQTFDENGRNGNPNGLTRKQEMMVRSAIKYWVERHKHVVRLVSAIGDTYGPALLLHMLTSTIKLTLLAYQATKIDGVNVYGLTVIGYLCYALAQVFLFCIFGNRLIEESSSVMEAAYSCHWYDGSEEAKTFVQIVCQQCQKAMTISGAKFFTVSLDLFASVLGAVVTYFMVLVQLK
Text: (§1) For transient transfections, ORs were cloned into pCl (Promega) and transfected into Flp-In™ T-REx™293 cell lines (Invitrogen) with Fu GENE6 (Roche). For the creation of stable cell lines, a cell culture expression vector capable of expressing Orco in conjunction with a conventional OR, pcDNA5/FRT/TO (Invitrogen) was modified to create two individual expression cassettes each under the control of a separate CMV/Tet02 promoter and a BGH poly-adenylation signal. Cells (as above) were transfected with the modified pcDNA5 plasmid along with POG44 (a Flp recombinase expression plasmid) to facilitate site-specific recombination. Stable cell lines were selected using Hygromycin B (Invitrogen). Cells were maintained in DMEM (Invitrogen) supplemented with 10% Tetracycline-free FBS (HyClone) and 15 ng/ml Blasticidin. For fluorometric Ca2+ measurements, stable lines expressing ORs of interest were seeded at 20,000 cells/well in black wall, poly-lysine coated 384-well cell culture plates (Greiner) and treated with […] tetracycline (Sigma) overnight to induce OR expression. Cells were dye-loaded with 1.8 uM Fluo-4 AM (Molecular Probes), 2.5 mM Probenecid (Molecular Probes) in assay buffer (20 mM HEPES, IX HBSS) for 45 minutes at 37° C. in 5% CO2 prior to each assay. Ca^2+ mobilization was assayed in an FDSS6000 (Hamamatsu). Baseline readings were taken for 20 s before automated addition of compound previously diluted in DMSO and assay buffer. Ratios were described as Maximum/Minimum response and each response was normalized to the maximum responder.

AgOrco+AgOR65 = target: T2, AgOrco+AgOR65 (Anopheles gambiae, UniProt Q7QCC7); experiment: Ca2+ imaging, HEK cells expressing AgOrco+AgOR65; format: cell-based
T2 construct: expressed in transfected cells
T2 sequence (Q7QCC7 1-478): T1 sequence (Q7QCC7 1-478)
Text: as §1
For VUAA0, a single methyl from the para position of the aniline ring (compound VUAA0, FIG. 44) in the VUAA1 structure was removed. […] In VUAA0.5, unsaturation was introduced at the para position of the aniline ring (VUAA0.5, FIG. 44). […] In VUAA2, the ethyl group of the aniline ring in VUAA1 was replaced with an isopropyl group (VUAA2, FIG. 44).

AgORco+AgOR48 = target: T3, AgORco+AgOR48 (Anopheles gambiae, UniProt Q7QCC7); experiment: Ca2+ imaging, HEK cells expressing AgORco+AgOR48; format: cell-based; settings: for Orco + 48 Agonist EC50 (given only relative to VUAA1): comparison with VUAA1 in words; for Orco + 48 Agonist % value Of VUAA1: relative to VUAA1; for Orco + 48 Agonist EC50 (relative to VUAA1): stated in words relative to VUAA1
T3 construct: expressed in transfected cells
T3 sequence (Q7QCC7 1-478): T1 sequence (Q7QCC7 1-478)
Text: as §1
The ability of VUAA1 and its analogs to agonize representative ORco proteins from dipteran (Anopheles gambiae, AgORco), lepidopteran (Heliothis virescens, HvORco) and hymenopteran (Harpegnathos saltator, HsORco) orders was tested. […] Furthermore, the hierarchy of VUAA series potency was the same, irrespective of whether AgORco was co-expressed with AgOR65 or AgOR48 tuning ORs (FIG. 45). Without wishing to be bound by a particular theory, odorant ligands are thought to activate the complex via interaction with the tuning ORx and thereby affect ORco/ORx channel properties. […] These findings indicate VUAA-class OR co-modulators are viable compounds for further development as broad-spectrum insect control strategies, and VUAA4 can provide an advance in the pharmacological profile of VUAA-based compounds.

AgORco+AgOR10 = target: T4, AgORco+AgOR10 (Anopheles gambiae, UniProt Q7QCC7); experiment: Fluo-4 Ca2+ imaging, HEK293 cells expressing Orco+AgOR10; format: cell-based; set-up: Orco 10 + Orco Angatonist % Reduction / Orco 10 + Orco Agonist % of control: concentration or dose not given beside the values; settings: 10 + Orco; for Orco 10 + Orco Agonist, compared with VUAA1: agonist mode, qualitative, relative to VUAA1
T4 construct: expressed in transfected cells
T4 sequence (Q7QCC7 1-478): T1 sequence (Q7QCC7 1-478)
Text: as §1
As part of an ongoing, cell based calcium imaging screen for novel small-molecule modulators of AgORs that might disrupt olfactory-driven mosquito behaviors (Rinker et al manuscript in preparation), the inventors identified a number of compounds that activated AgOR10+AgORco-expressing human embryonic kidney (HEK293) cells. One of these compounds, (FIG. 3 A) denoted here as VUAA1, elicited activity consistent with allosteric agonism and was pursued for its novel properties. The identity of VUAA1 was verified using high-resolution mass spectrometry (HRMS) as well as ^1H and ^13C NMR. […] As AgORco was the common element among these functional responses, the inventors postulated that VUAA1 was a potential AgORco agonist.

[1] = test system: An. gambiae early 4th instar larvae; experiment: Larval mosquito movement assay (Daniovision-Ethovision); format: in vivo, Anopheles gambiae; settings: compared with DMSO controls or VUAA1
Protocol: Next, the agonist activity of the VUAA compound class was tested to establish the involvement of AgORs in mediating larval ortho and klinokinesis in response to a series of semiochemicals using larval-stage An. gambiae mosquitoes. Mosquito larvae are aquatic, thus compounds can be delivered to individual early 4th instar larvae regardless of volatility. The assay currently utilizes 6-well plates and the Daniovision-Ethovision platform (Noldus Inc.) to simultaneously record and analyze 6 larvae, thereby providing modest rates of throughput and a high degree of reproducibility. In these assays, larval movements are automatically quantified over 5-minute period and control larvae consistently move the same number of times in the presence or absence of 0.1% DMSO (p=0.80, n=31) (FIGS. 42-43). Furthermore, the effects of the widely-used synthetic insect repellent N, N-diethyl-meta-toluamide (DEET) was tested and DEET was also observed to increase larval movements at and above a threshold concentration of 5×10^−4M (p=0.013, n=27) (FIGS. 42-43).

[2] = Orco + 65, read-out: Orco + 65 Agonist EC50
[3] = Orco + 48, read-out: Orco + 48 Agonist EC50
[4] = heteromeric OR channels AgOrco+AgOR65, read-out: EC50

Compound: CCn1c(SCC(=O)Nc2ccc(C)cc2)nnc1-c1cccnc1 [drawing 372]
- EC50 (Orco (AgORco)): 262 µM
- EC50 (AgOrco+AgOR65; [2]): 335 µM
- EC50 (AgORco+AgOR48; [3]): 996 µM

Compound: CCn1c(SCC(=O)N2CCc3cc(Br)ccc32)nnc1-c1cccnc1
- Emax (Orco (AgORco)): 59%
- EC50 (Orco (AgORco)): 55 µM
- Orco 10 + Orco Agonist, compared with VUAA1 (AgORco+AgOR10): >VUAA1
- Orco 10 + Orco Angatonist % Reduction (AgORco+AgOR10; antagonist mode): 59%

Compound: CCn1c(SCC(=O)Nc2ccc(Br)cc2F)nnc1-c1ccncc1
- Orco + 48 Agonist EC50 (given only relative to VUAA1) (AgORco+AgOR48; Orco + 48): <VUAA1
- Orco + 48 Agonist % value Of VUAA1 (AgORco+AgOR48; Orco + 48): <VUAA1

Compound: CCCCCCC1CCCC(=O)O1 [D-undecalactone, reference compound]
- EC50 (AgORco+AgOR48; AgORco co-expressed with AgOR48, read-out: EC50): 0.26 µM

Compound: CCc1ccc(NC(=O)CSc2nnc(-c3ccncc3)n2C2CC2)cc1
- EC50 (AgORco+AgOR48; Orco + 48, agonist, read-out: Orco + 48 Agonist EC50): 13 µM

Compound: C=Cc1ccc(NC(=O)CSc2nnc(-c3ccncc3)n2C2CC2)cc1
- Orco + 48 Agonist % value Of VUAA1 (AgORco+AgOR48; Orco + 48, agonist): <VUAA1
- Orco + 48 Agonist EC50 (relative to VUAA1) (AgORco+AgOR48; Orco + 48, agonist): <VUAA1

Compound: CCn1c(SCC(=O)Nc2ccc(C(C)C)cc2)nnc1-c1ccncc1
- Emax (Orco (AgORco)): 136%
- EC50 (Orco (AgORco)): 7.4 µM
- EC50 (AgOrco+AgOR65; [2]): 8.2 µM
- EC50 (AgORco+AgOR48; [3]): 3.5 µM
- Orco + 48 Agonist % value Of VUAA1 (AgORco+AgOR48; Orco + 48): 112%

Compound: C=CCc1ccc(O)c(OC)c1 [eugenol, reference compound]
- EC50 (AgOrco+AgOR65; [4]): 0.5 µM

Compound: CCn1c(SCC(=O)Nc2ccc(C(C)C)cc2)nnc1-c1ccnc(F)c1
- Emax (Orco (AgORco)): 38%
- EC50 (Orco (AgORco)): 100 µM
- EC50 (AgORco+AgOR48; [3]): 75.2 µM
- Orco + 48 Agonist % value Of VUAA1 (AgORco+AgOR48; Orco + 48): 62%

Compound: C=Cc1ccc(NC(=O)CSc2nnc(-c3cccnc3)n2CC)cc1 [VUAA0.5, 2-((4-ethyl-5-(pyridin-3-yl)-4H-1,2,4-triazol-3-yl)thio)-N-(4-vinylphenyl)acetamide]
- EC50 (AgOrco+AgOR65; [4]): 110 µM
- larval behavioral (movement) response [1]: comparable to DMSO controls

Compound: CCCc1ccc(NC(=O)CSc2nnc(-c3ccncc3)n2CC)cc1
- Orco + 48 Agonist EC50 (given only relative to VUAA1) (AgORco+AgOR48; Orco + 48): <VUAA1
- Orco + 48 Agonist % value Of VUAA1 (AgORco+AgOR48; Orco + 48): <VUAA1

Compound: CCCc1ccc(NC(=O)CSc2nnc(-c3cccnc3)n2CC)cc1
- Emax (Orco (AgORco)): 87%
- EC50 (Orco (AgORco)): 63 µM
- Orco 10 + Orco Agonist, compared with VUAA1 (AgORco+AgOR10): <VUAA1
- EC50 (AgORco+AgOR48; [3]): 19.8 µM

Compound: CCCc1ccc(NC(=O)CSc2nnc(-c3ccncc3)n2C2CC2)cc1
- Orco + 48 Agonist % value Of VUAA1 (AgORco+AgOR48; Orco + 48, agonist): <VUAA1
- Orco + 48 Agonist EC50 (relative to VUAA1) (AgORco+AgOR48; Orco + 48, agonist): <VUAA1

Compound: CCn1c(SCC(=O)Nc2ccc(C(C)C)cc2)nnc1-c1cccnc1 [VUAA2, 2-((4-ethyl-5-(pyridin-3-yl)-4H-1,2,4-triazol-3-yl)thio)-N-(4-isopropylphenyl)acetamide]
- EC50 (AgOrco+AgOR65; [4]): 9.2 µM
- larval behavioral (movement) response [1]: not observed to elicit larval responses greater than VUAA1
